Laboratory results reported in patent US20240197809A1, “HAIR CARE COMPOSITION AND BANANA FLOWER EXTRACT AND METHOD FOR HAIR CARE USING THE SAME” (TCI CO., LTD., priority 2022, published 2024).

Tests used:
[1] = tested on: dihydrotestosterone content in human prostate cell LNcap; experiment: Test of banana flower extract to inhibit dihydrotestosterone (DHT ELISA in testosterone-treated LNcap cells); format: cell-based; conditions: testosterone 2 h, blank group 32.8 pg/mL
Experimental: A significant increase in the production of dihydrotestosterone (DHT) in hair follicles of the forehead can be observed in young bald female patients. If the dihydrotestosterone can be inhibited, the effect of caring hair follicles and promoting hair growth is achieved. In this test, whether the content of the dihydrotestosterone in human prostate cells treated with different concentrations of banana extract was reduced or not was measured, and a common therapeutic drug Propecia for alopecia androgenetica was used as control.
Cell line: Human prostate cell LNcap (purchased from BCRC; access number Cat. 60088), hereinafter referred to as LNcap cell.
Cell medium (human prostate cell LNcap cell medium): RPMI 1640 Medium (RPMI), powder (Gibco; Cat. 31800-022), 10% fetal bovine serum (FBS) (Gibco; Cat. 10437-028) and 1% Antibiotic-Antimycotic (AA) (Gibco; Cat. 15240-062).
Reagent: 1×DPBS (Gibco, Cat. 14200-075), trypsin (1× Trypsin-EDTA, purchased from Thermo, Cat. FNN0011), Propecia (also referred to as Finasteride, purchased from Sigma; Cat. F1293), Testosterone (purchased from Sigma; Cat. T1500), and cell lysis buffer (purchased from RIPA Lysis and Extraction Buffer (Thermo #89900).
Detection kits: dihydrotestosterone ELISA Reagent Detection Kits (USCN; CEA443Ge).
Firstly, LNcap cells were implanted into a 6-well cell culture plate in a density of 1×10^5 LNcap cells and cultured at 37° C. in a 5% carbon dioxide incubator for 24 h.
The cultured LNcap cells were divided into an experimental group A, an experimental group B, a control group and a blank group. […]
Next, a 200 μL 1× cell lysis buffer was added into the tube to lyse the LNcap cells. […] Finally, the dihydrotestosterone content in the LNcap cells was detected by using a dihydrotestosterone ELISA kit. […]
(§1) Here, whether two groups compared have a statistically significant difference or not is analyzed with a single-tailed student t-test to obtain their p-values. […]

[2] = tested on: Human Follicle Dermal Papilla Cells (HFDPC); experiment: Hair follicle cell proliferation test (Click-iT EdU flow cytometry); format: cell-based
Source text: Hair follicle cells are the foundation of hair. In hair follicle cells at the growth phase, cells in hair follicle bulbs of the hair root can divide once a day. If the proliferation of the hair follicle cells is promoted, the effect of promoting hair growth can be achieved. In this test, the proliferation of human follicle dermal papilla cells treated with the compound I was examined.
Cell line: Human Follicle Dermal Papilla Cells (HFDPC) (purchased from PromoCell; Cat. C-12071), hereinafter referred to as HFDPC cells.
Detection kit: Cell proliferation ELISA reagent detection kit (Click-iT™ Plus EdU Flow Cytometry Assay Kits-Alexa Fluor™ 488 picolyl azide, 50 tests, brand Invitrogen, model C10632), containing composition C (Dimethyl sulfoxide DMSO), composition D (Click-iT™ fixative), composition E (Click-iT™ saponin-based permeabilization and wash reagent), composition F (Copper protectant), and composition G (Click-iT™ EdU buffer additive).
Firstly. […]
The supernatant was removed. […] Finally, a fluorescence signal was measured with a flow cytometer (excitation light: 488 nm; scattered light: 527 nm and 590 nm).
as §1

For `CC(C)(C)NC(=O)[C@H]1CC[C@H]2[C@@H]3CC[C@H]4NC(=O)C=C[C@]4(C)[C@H]3CC[C@]12C` [Propecia, Finasteride, reference compound], which dihydrotestosterone content ([1]; 20 μg/mL (control group)) is on record?
The dihydrotestosterone content was 17.16 pg/mL.

Which “number of the HFDPC cells (blank group = 100%)” value ([2]; 100 μM, Example 4, FIG. 3) does the source give for `CC(=O)OCC1O[C@H](O[C@]2(CO)O[C@H](COC(C)=O)C(O)C2OC(=O)/C=C/c2ccc(O)cc2)C(OC(C)=O)C(OC(C)=O)[C@@H]1O` (stereo partly drawn) [compound II, 6,2′,3′,6′-O-tetraacetyl-3-O-trans-p-coumaroylsucrose] here?
The value was 112.54%.

For `O=C(O)CC(O)(CC(=O)O)C(=O)NCCc1ccc(O)c(O)c1` [compound I, N-β-citroyldopamine], which dihydrotestosterone content ([1]; 5 μg/mL (experimental group B)) is on record?
The dihydrotestosterone content was 25.20 pg/mL.

What about the dihydrotestosterone content ([1]; 10 μg/mL (experimental group A)) of the same compound?
Its dihydrotestosterone content is 25.03 pg/mL.

What about the “number of the HFDPC cells (blank group = 100%)” value ([2]; 10 μg/mL, Example 3, FIG. 2) of the same compound?
Its value is 118.81%.
